In patent US20240376163A1, “PEPTIDE FOR INHIBITING CALCINEURIN AND USE THEREOF” (Seoul National University R&DB Foundation, priority 2023, published 2024):

System: Jurkat T cells
Test: mRNA sequencing of activated Jurkat T cells
Type: cell-based, human
Settings: Jurkat T cells, P + I

PEITVTPPTP [CABIN1-L-1-2]
ABTB2 FPKM: 6.382 FPKM
ACAP1 FPKM: 26.535 FPKM
ACSF3 FPKM: 15.621 FPKM
ADA FPKM: 73.254 FPKM
ADAMTS17 FPKM: 0.882 FPKM
ADCYAP1 FPKM: 3.219 FPKM
ADORA2A FPKM: 1.475 FPKM
AFF2 FPKM: 3.175 FPKM
AGK FPKM: 14.306 FPKM
ALDH1A2 FPKM: 6.66 FPKM
ALOX5AP FPKM: 39.735 FPKM
ANKEF1 FPKM: 2.575 FPKM
ANO8 FPKM: 2.721 FPKM
ANTXR2 FPKM: 55.18 FPKM
APH1B FPKM: 4.206 FPKM
APOBEC3B-AS1 FPKM: 20.386 FPKM
APOBEC3F FPKM: 7.066 FPKM
APOBEC3G FPKM: 9.231 FPKM
APOL1 FPKM: 4.498 FPKM
ARHGAP4 FPKM: 16.216 FPKM
ARHGAP25 FPKM: 2.157 FPKM
ARHGAP31 FPKM: 11.177 FPKM
ARHGEF3 FPKM: 8.674 FPKM
ARPP21 FPKM: 0.7 FPKM
ASB13 FPKM: 2.543 FPKM
ASNS FPKM: 19.026 FPKM
ATHL1 FPKM: 6.014 FPKM
ATP2A3 FPKM: 36.996 FPKM
ATP6V0A4 FPKM: 18.558 FPKM
ATP6V1B2 FPKM: 60.661 FPKM
ATPAF1 FPKM: 10.283 FPKM
AVPR2 FPKM: 1.492 FPKM
B2M FPKM: 1302.512 FPKM
BAHCC1 FPKM: 0.873 FPKM
BCL2A1 FPKM: 51.928 FPKM
BCL2L1 FPKM: 41.852 FPKM
BCL3 FPKM: 17.15 FPKM
BCL6 FPKM: 15.55 FPKM
BCL7A FPKM: 12.277 FPKM
BCL11B FPKM: 3.353 FPKM
BEND6 FPKM: 1.409 FPKM
BIN1 FPKM: 1.968 FPKM
BIRC3 FPKM: 58.303 FPKM
C10orf55 FPKM: 15.779 FPKM
C11orf74 FPKM: 0.392 FPKM
C21orf58 FPKM: 6.073 FPKM
CABP1 FPKM: 1.689 FPKM
CAMK2D FPKM: 6.138 FPKM
CARHSP1 FPKM: 14.562 FPKM
CBFA2T3 FPKM: 11.821 FPKM
CBLB FPKM: 7.757 FPKM
CBS FPKM: 3.916 FPKM
CBX2 FPKM: 2.454 FPKM
CCDC15 FPKM: 2.926 FPKM
CCL3 FPKM: 0.502 FPKM
CCL3L3 FPKM: 0.079 FPKM
CCL20 FPKM: 1.279 FPKM
CCND3 FPKM: 25.396 FPKM
CCNE2 FPKM: 5.206 FPKM
CD1B FPKM: 4.733 FPKM
CD1E FPKM: 3.521 FPKM
CD70 FPKM: 7.606 FPKM
CD82 FPKM: 222.109 FPKM
CD97 FPKM: 21.496 FPKM
CD200 FPKM: 0.094 FPKM
CD274 FPKM: 15.92 FPKM
CDKN1A FPKM: 62.513 FPKM
CDKN2D FPKM: 16.801 FPKM
CECR1 FPKM: 3.984 FPKM
CENPM FPKM: 14.415 FPKM
CEP70 FPKM: 12.745 FPKM
CERKL FPKM: 10.348 FPKM
CFLAR FPKM: 3.022 FPKM
CHEK2 FPKM: 7.751 FPKM
CHPF2 FPKM: 34.939 FPKM
CHPF FPKM: 12.714 FPKM
CHRNA3 FPKM: 3.499 FPKM
CHST12 FPKM: 12.639 FPKM
CNN2 FPKM: 18.455 FPKM
COL27A1 FPKM: 5.729 FPKM
CPD FPKM: 26.602 FPKM
CREB3L2 FPKM: 5.857 FPKM
CREB5 FPKM: 1.966 FPKM
CSF1 FPKM: 2.594 FPKM
CSF2 FPKM: 0.314 FPKM
CXCL8 FPKM: 3.327 FPKM
CXCL11 FPKM: 3.793 FPKM
CXCR4 FPKM: 34.014 FPKM
CYTH1 FPKM: 30.15 FPKM
DBP FPKM: 1.773 FPKM
DCBLD2 FPKM: 15.588 FPKM
DENND5A FPKM: 37.896 FPKM
DNAJB5 FPKM: 19.35 FPKM
DSTYK FPKM: 3.595 FPKM
DTL FPKM: 5.275 FPKM
DTX1 FPKM: 3.245 FPKM
DUSP6 FPKM: 12.914 FPKM
DUSP10 FPKM: 12.142 FPKM
E2F7 FPKM: 4.018 FPKM
ECE1 FPKM: 59.384 FPKM
EFHD2 FPKM: 234.38 FPKM
EGR1 FPKM: 123.294 FPKM
EGR2 FPKM: 9 FPKM
EHBP1L1 FPKM: 5.023 FPKM
EMP1 FPKM: 4.589 FPKM
ETS1 FPKM: 38.627 FPKM
FADS2 FPKM: 48.612 FPKM
FAM64A FPKM: 6.008 FPKM
FAT1 FPKM: 11.964 FPKM
FBLN2 FPKM: 3.01 FPKM
FKBP5 FPKM: 7.791 FPKM
FLI1 FPKM: 10.752 FPKM
FOSL1 FPKM: 12.705 FPKM
FOSL2 FPKM: 2.362 FPKM
FXYD5 FPKM: 42.856 FPKM
FYN FPKM: 15.512 FPKM
GAD1 FPKM: 2.238 FPKM
GFOD1 FPKM: 6.312 FPKM
GFRA1 FPKM: 0.76 FPKM
GKAP1 FPKM: 2.927 FPKM
GLRB FPKM: 1.354 FPKM
GLRX FPKM: 21.013 FPKM
GNG4 FPKM: 7.415 FPKM
GPC2 FPKM: 4.85 FPKM
GPR17 FPKM: 0.181 FPKM
GPR68 FPKM: 11.224 FPKM
GSE1 FPKM: 14.556 FPKM
GTDC1 FPKM: 5.144 FPKM
GXYLT2 FPKM: 4.24 FPKM
GZMB FPKM: 909.046 FPKM
HCAR1 FPKM: 7.943 FPKM
HIVEP3 FPKM: 20.545 FPKM
HLA-A FPKM: 226.558 FPKM
HLA-B FPKM: 160.359 FPKM
HPGD FPKM: 3.392 FPKM
IFIT3 FPKM: 6.682 FPKM
IKZF2 FPKM: 8.132 FPKM
IL2 FPKM: 12.964 FPKM
IL4R FPKM: 12.536 FPKM
IL10RA FPKM: 3.208 FPKM
IL15 FPKM: 3.16 FPKM
IL15RA FPKM: 7.481 FPKM
IL21R FPKM: 5.255 FPKM
IL21R-AS1 FPKM: 3.991 FPKM
IL27RA FPKM: 10.764 FPKM
IQCJ-SCHIP1 FPKM: 1.234 FPKM
IQGAP2 FPKM: 3.477 FPKM
IRF1 FPKM: 152.425 FPKM
IRF2 FPKM: 34.829 FPKM
IRF4 FPKM: 2.092 FPKM
IRF7 FPKM: 21.372 FPKM
ITGA4 FPKM: 31.73 FPKM
ITGAL FPKM: 7.674 FPKM
ITK FPKM: 62.324 FPKM
JAK2 FPKM: 8.45 FPKM
KCNK1 FPKM: 13.139 FPKM
KIAA0101 FPKM: 16.766 FPKM
KIAA0247 FPKM: 8.83 FPKM
KIR3DX1 FPKM: 3.992 FPKM
KLF10 FPKM: 15.364 FPKM
KLF12 FPKM: 4.377 FPKM
KREMEN1 FPKM: 2.958 FPKM
LAIR1 FPKM: 7.19 FPKM
LDLRAD4 FPKM: 4.769 FPKM
LEF1-AS1 FPKM: 2.388 FPKM
LEF1 FPKM: 48.109 FPKM
LGMN FPKM: 1.976 FPKM
LIF FPKM: 0.231 FPKM
LIMS2 FPKM: 4.304 FPKM
LINC00659 FPKM: 9.828 FPKM
LINC01260 FPKM: 7.215 FPKM
LMNA FPKM: 2.786 FPKM
LMO1 FPKM: 0.954 FPKM
LOC653712 FPKM: 2.808 FPKM
LOC100506688 FPKM: 1.704 FPKM
LOC101926963 FPKM: 4.742 FPKM
LOC101927497 FPKM: 10.444 FPKM
LPAR6 FPKM: 4.344 FPKM
LRRC8C FPKM: 11.753 FPKM
LRRC20 FPKM: 2.839 FPKM
LTBP4 FPKM: 9.568 FPKM
LUCATI FPKM: 9.183 FPKM
MAFF FPKM: 16.464 FPKM
MAGEA4 FPKM: 3.775 FPKM
MAL FPKM: 2.026 FPKM
MAMLD1 FPKM: 9.949 FPKM
MAP3K7CL FPKM: 2.03 FPKM
MAST4 FPKM: 5.841 FPKM
MAZ FPKM: 99.474 FPKM
MCM2 FPKM: 23.634 FPKM
MCTP2 FPKM: 3.187 FPKM
METRN FPKM: 1.604 FPKM
MFAP4 FPKM: 0.663 FPKM
MGAT4A FPKM: 8.882 FPKM
MICAL2 FPKM: 1.84 FPKM
MIR22HG FPKM: 8.63 FPKM
MIR3652 FPKM: 567.901 FPKM
MIR6775 FPKM: 21.57 FPKM
MIR6821 FPKM: 25.116 FPKM
